Reference: patent US20080161378A1, “Novel Therapeutic Agent For Amyotrophic Lateral Sclerosis (Als) or Diseases Caused by Als” (priority 2004, published 2008)

How the values were obtained:
ALS = settings: Non-Patent Documents 1-5; cited from earlier work
patients of ALS [1] = assay: Efficacy evaluation 6 months after administration based on ALSFRS-R (cumulative differences); type: in vivo, human; settings: for Suppression rate (rate of "suppressed") in accordance with ALSFRS-R / Assessment based on cumulative differences in accordance with ALSFRS-R: Suppressed (number of cases): i.v. once daily; for Suppression rate (rate of "suppressed") in accordance with ALSFRS-R: 6 administration periods; for Assessment based on cumulative differences in accordance with ALSFRS-R: Suppressed (number of cases): 6 administration periods with drug holidays, suppressed = ratio between cumulative differences 50% or less; for Assessment based on cumulative differences in accordance with ALSFRS-R: No change (number of cases): no change = ratio 100% or more; for Assessment based on cumulative differences in accordance with ALSFRS-R: Slightly suppressed (number of cases): slightly suppressed = ratio more than 50% and less than 100%
Description: 1 ampule of “Radicut injection 30 mg” (containing 30 mg of edaravone, produced and marketed by Mitsubishi Pharma Corporation) was intravenously administered once daily to 5 patients of ALS. Single daily administration of the medicament took 30 minutes, and the administration was carried out for 14 consecutive days (the 1st administration period). […] Thereafter, intravenous administration of the medicament was carried out for 10 days (with no administration on Saturdays, Sundays, and national holidays) in the manner described above (the 2nd administration period). Then, treatments similar to those carried out in the 2nd administration period were repeated 4 times (the 3rd to 6th administration periods).
2 ampules of the aforementioned “Radicut injection 30 mg” were intravenously administered once daily to 14 patients of ALS. Single daily administration of the medicament took 60 minutes, and the administration was carried out for 14 consecutive days (the 1st administration period). […] Thereafter, the intravenous administration of the medicament was carried out for 10 days (with no administration on Saturdays, Sundays, and national holidays) in the manner described above (the 2nd administration period). Then, treatments similar to those carried out in the 2nd administration period were repeated 4 times (the 3rd to 6th administration periods).
In accordance with ALSFRS-R, the score at a time point “before the 1st administration period” (*) was determined to be a base point based on comparison of changes “before administration” and changes “during administration.” Then, patients were evaluated in the following manner.
• Difference at each time point before administration=(* before the 1st administration period)−(time point 1, 2 3, 4, 5 or 6 before administration) • Difference at each time point during administration=(time point i, ii, iii, iv, v, or vi before each administration period)−(* before the 1st administration period)
The sum of differences at time points before administration (defined as A)
A=(*−1)+(*−2)+(*−3)+(*−4)+(*−5)+(*−6)
The sum of differences at time points during administration (defined as B)
B=(i−*)+(ii−*)+(iii−*)+(iv−*)+(v−*)+(vi−*)
Averages of the sums of differences obtained in 2) were calculated so as to obtain cumulative differences. (The sums were divided by 6, based on 6 time points 1 to 6 before administration and 6 time points i to vi during administration).
Cumulative difference before administration=A/6
Cumulative difference during administration=B/6
Based on the averages obtained in 3), the ratio of cumulative difference before administration (A/6) to cumulative difference during administration (B/6) was expressed by the following formula:
(Formula)cumulative difference during administration/cumulative difference before administration×100.
Ratio between cumulative differences(%)=(B/6)/(A/6)×100.
Based on the “ratio between cumulative differences” obtained in 4), efficacy evaluation was made in accordance with the following criteria.

patients of ALS [2] = assay: Efficacy evaluation 6 months after administration based on % FVC (percent predicted forced vital capacity); type: in vivo, human; settings: for average rate of decrease of % FVC: before 1st administration period vs end of 6th administration period
Description: The term “% FVC” stands for percent predicted forced vital capacity; it is generally used as an index in a method for objectively evaluating respiratory function in ALS patients (ALS treatment guidelines 2002). In addition, in the case of ALS patients (placebo group), the rate of decrease of % FVC for during 6 months is 13.8% (The BDNF Study Group (Phase III), Neurology, 52, 1427 (1999)).
1 ampule of the aforementioned “Radicut injection 30 mg” was intravenously administered once daily to 4 patients of ALS. Single daily administration of the medicament took 30 minutes, and it was carried out for 14 consecutive days (the 1st administration period). […] Thereafter, intravenous administration of the medicament was carried out for 10 days (with no administration on Saturdays, Sundays, and national holidays) in the manner described above (the 2nd administration period). Then, treatments similar to those carried out in the 2nd administration period were repeated 4 times (the 3rd to the 6th administration periods).
The % FVC for each patient was determined using a chestac-11 (Chest). The average rate of decrease of % FVC was 9.3% when comparing % FVC before the 1st drug administration period and that at the end of the 6th drug administration period.
2 ampules of “Radicut injection 30 mg” (each of which contained 30 mg of edaravone) were intravenously administered once daily to 12 patients of ALS. Single daily administration of the medicament took 60 minutes and it was carried out for 14 consecutive days (the 1st administration period). […] Thereafter, intravenous administration of the medicament was carried out for 10 days (with no administration on Saturdays, Sundays, and national holidays) in the manner described above (the 2nd administration period). […]
The % FVC for each patient was determined using a chestac-11 (Chest), as with the case of the 30 mg group. […] In addition, partial pressure of arterial carbon dioxide (PaCO2) was determined. The PaCO2 of each patient was determined using a blood gas analyzer (Bayer 850; Bayer Medical).

patients of ALS [3] = assay: Partial pressure of arterial carbon dioxide (PaCO2), blood gas analyzer; type: in vivo, human
Description: 2 ampules of “Radicut injection 30 mg” (each of which contained 30 mg of edaravone) were intravenously administered once daily to 12 patients of ALS. Single daily administration of the medicament took 60 minutes and it was carried out for 14 consecutive days (the 1st administration period). […] Thereafter, intravenous administration of the medicament was carried out for 10 days (with no administration on Saturdays, Sundays, and national holidays) in the manner described above (the 2nd administration period). Then, treatments similar to those carried out in the 2nd administration period were repeated 4 times (the 3rd to the 6th administration periods).
The % FVC for each patient was determined using a chestac-11 (Chest), as with the case of the 30 mg group. The average rate of decrease of % FVC was 4.5% when comparing % FVC before the 1st drug administration period and that at the end of the 6th drug administration period. In addition, partial pressure of arterial carbon dioxide (PaCO2) was determined. The PaCO2 of each patient was determined using a blood gas analyzer (Bayer 850; Bayer Medical).

patients of ALS [4] = assay: Safety evaluation 6 months after administration, clinical laboratory test; type: in vivo, human; settings: for BUN / CK / Creatinine / GOT / GPT / γ-GTP: average of patients of Example 2
Description: The patients of Example 2 were each subjected to a clinical laboratory test.
The following components were determined before and after drug administration using a large automated multichannel analyzer (automatic analyzer 7600-020s; Hitachi).

[5] = overall conclusion of Example 2
[6] = before administration (baseline)

CC(=O)N[C@@H](CS)C(=O)O [N-acetylcysteine]
prevention of decreased respiratory function in ALS (ALS): cannot prevent decreased respiratory function

CC1=NN(c2ccccc2)C(=O)C1 [Radicut injection 30 mg, 3-methyl-1-phenyl-2-pyrazolin-5-one]
Suppression rate (rate of "suppressed") in accordance with ALSFRS-R (patients of ALS [1]; 30 mg group (5 ALS patients)): 20%
Assessment based on cumulative differences in accordance with ALSFRS-R: Suppressed (number of cases) (patients of ALS [1]; 30 mg group (5 ALS patients)): 1
Assessment based on cumulative differences in accordance with ALSFRS-R: No change (number of cases) (patients of ALS [1]; 30 mg group (5 ALS patients)): 1
Assessment based on cumulative differences in accordance with ALSFRS-R: Slightly suppressed (number of cases) (patients of ALS [1]; 30 mg group (5 ALS patients)): 3
Suppression rate (rate of "suppressed") in accordance with ALSFRS-R (patients of ALS [1]; 60 mg group (14 ALS patients)): 50%
Assessment based on cumulative differences in accordance with ALSFRS-R: Suppressed (number of cases) (patients of ALS [1]; 60 mg group (14 ALS patients)): 7
Assessment based on cumulative differences in accordance with ALSFRS-R: No change (number of cases) (patients of ALS [1]; 60 mg group (14 ALS patients)): 6
Assessment based on cumulative differences in accordance with ALSFRS-R: Slightly suppressed (number of cases) (patients of ALS [1]; 60 mg group (14 ALS patients)): 1
average rate of decrease of % FVC (patients of ALS [2]; 30 mg group (4 ALS patients)): 9.3%
average rate of decrease of % FVC (patients of ALS [2]; 60 mg group (12 ALS patients)): 4.5%
decrease of % FVC in ALS patients (patients of ALS [2]; [5]): significantly suppressed
PaCO2 values before the 1st administration period and after the end of the 6th administration period (patients of ALS [3]; 60 mg group (12 ALS patients)): almost the same
increase of PaCO2 in ALS patients (patients of ALS [3]; [5]): significantly suppressed
BUN (patients of ALS [4]; after administration): 14.3 mg/dL
CK (patients of ALS [4]; after administration): 135.6 IU/L
Creatinine (patients of ALS [4]; after administration): 0.6 mg/dL
GOT (patients of ALS [4]; after administration): 19.1 IU/L
GPT (patients of ALS [4]; after administration): 19.6 IU/L
γ-GTP (patients of ALS [4]; after administration): 25.3 IU/L
BUN (patients of ALS [4]; [6]): 14.1 mg/dL
CK (patients of ALS [4]; [6]): 165.3 IU/L
Creatinine (patients of ALS [4]; [6]): 0.6 mg/dL
GOT (patients of ALS [4]; [6]): 21.3 IU/L
GPT (patients of ALS [4]; [6]): 22.2 IU/L
γ-GTP (patients of ALS [4]; [6]): 31.6 IU/L
clinical laboratory values after administration (safety) (patients of ALS [4]; patients of Example 2, 6 months after administration): did not increase to abnormal levels

RhIGF-1: medicament examined as potential medicament for treating ALS
prevention of decreased respiratory function in ALS (ALS): cannot prevent decreased respiratory function

NCC1(CC(=O)O)CCCCC1 [gabapentin]
prevention of decreased respiratory function in ALS (ALS): cannot prevent decreased respiratory function

B1: BDNF: medicament examined as potential medicament for treating ALS (protein, UniProt P23560 19-247, looked up)
Neurotrophic factor BDNF …: APMKEANIRGQGGLAYPGVRTHGTLESVNGPKAGSRGLTSLADTFEHVIEELLDEDQKVRPNEENNKDADLYTSRVMLSSQVPLEPPLLFLLEEYKNYLDAANMSMRVRRHSDPARRGELSVCDSISEWVTAADKKTAVDMSGGTVTVLEKVPVSKGQLKQYFYETKCNPMGYTKEGCRGIDKRHWNSQCRTTQSYVRALTMDSKKRIGWRFIRIDTSCVCTLTIKRGR
prevention of decreased respiratory function in ALS (ALS): cannot prevent decreased respiratory function
